According to patent US9980927B2, “Use of tapentadol for inhibiting and/or treating depression and anxiety” (Gruenenthal GmbH, priority 2011, dated 2018):

Tested on: patients with inadequately managed, severe chronic low back pain with or without a neuropathic pain component
Experiment: Hospital Anxiety and Depression Scale (HADS) depression score; open-label phase IIIb trial, tapentadol prolonged release 50-250 mg bid for up to 12 weeks
Assay type: in vivo, human patients
Protocol: As used herein, the “depression score” is a value determining the degree of the depression. The scale of depression scores covers the range from 0 to 21, wherein the degree of the depression is high in case of high values and low in case of low values. In a group of tested subjects, typically the mean or mediate values of depression scores are determined. The mean value is the sum of all depression scores divided by the number of subjects. The mediate value is the middle depression score in the set of determined scores. Preferably, the “depression score” is defined as in the experimental section.
A subgroup suffering from neuropathic pain due to lumbar radiculopathy was also investigated.
This was a multicenter, multinational, open-label, effectiveness phase IIIb trial to evaluate effectiveness and safety of tapentadol prolonged release treatment in patients with inadequately managed, severe chronic low back pain with or without a neuropathic pain component. Patients taking WHO Step II analgesics discontinued those analgesics before starting study medication; patients taking Step I analgesics and/or centrally acting co-analgesics continued on the same dose. […] All patients received tapentadol prolonged release (50-250 mg bid) for up to 12 weeks (5-week titration period and a 7-week maintenance period). Tapentadol immediate release (IR) 50 mg (twice a day, hours apart) was permitted (combined total daily dose of tapentadol prolonged release and tapentadol IR, 500 mg/day). The primary efficacy endpoint was the change from Baseline to Week 6 (when tapentadol prolonged release doses were stable) in average pain intensity on the 11-point NRS-3 using the last observation carried forward (LOCF) for imputing missing scores. The painDETECT questionnaire was used to evaluate the likelihood of a neuropathic pain component of low back pain; patients were classified as painDETECT “negative,” “unclear,” or “positive.” The population of patients classified as painDETECT negative was limited to approximately 30% of the total population.
In the painDETECT positive trial population the “diagnosis of lumbar radiculopathy” was evaluated which was defined per study protocol according following criteria: • typical dermatomal pain (radiating beyond the knee towards the foot, pain evoked by stretching within distribution of the ischiadic/femoral nerve) • signs of root dysfunction: • such as sensory impairment, motor symptoms from compression of lumbar nerve root (L4, L5, S1). • and/or absent or diminished quadriceps femoris or triceps surae reflexes. • and/or quantitative sensory testing (QST) deficit and pain distribution present in the same dermatomal area.
All subjects completed Short Form-36 (SF-36) and EuroQol-5 Dimension (EQ-5D) questionnaires and the Hospital Anxiety and Depression Scale (HADS). The Patient Global Impression of Change (PGIC) and Clinical global impression of change (CGIC) were also used as secondary endpoints. For both tests, patients completed the statement, “since I began trial treatment, I would rate my overall condition as,” using 7 possible responses (“very much worse” to “very much improved”). Adverse events were recorded throughout the trial.
In the following • (i) N is the number of subjects of the specified diagnosis group, • (ii) n is the number of subjects with data available, • (iii) “Mean” is the mean score of the subjects, i.e. the sum of all scores is divided by the number of subjects, • (iv) SD is the standard deviation, • (v) “Median” is the median score of the subjects, i.e. the middle score in the set of scores, • (vi) “Range” is the range of scores of the subjects, i.e. the range defined by the lowest and the highest score of the set of scores. First, the depression scores are presented. The total number of subjects in the clinical study: N=175

[1] = Visit 8, presumed neuropathic pain component N=41
[2] = Visit 8, presumed or defined neuropathic
[3] = Visit 8, presumed or defined neuropathic pain component N=126
[4] = Visit 8, subjects with nociceptive pain N=49
[5] = Visit 9, defined neuropathic pain N=85
[6] = Visit 9, positive diagnosis of lumbar radiculopathy-neuropathic pain subset N=44
[7] = Visit 9, presumed neuropathic pain component N=41
[8] = Visit 9, presumed or defined neuropathic pain component N=126
[9] = Visit 9, subjects with nociceptive pain N=49
[10] = Visit 10, defined neuropathic pain N=85
[11] = Visit 10, positive diagnosis of lumbar radiculopathy-neuropathic pain subset N=44
[12] = Visit 10, presumed neuropathic pain component N=41
[13] = Visit 10, presumed or defined neuropathic pain component N=126
[14] = Visit 10, subjects with nociceptive pain N=49
[15] = Visit 11, defined neuropathic pain N=85
[16] = Visit 11, positive diagnosis of lumbar radiculopathy-neuropathic pain subset N=44
[17] = Visit 11, presumed neuropathic pain component N=41
[18] = Visit 11, presumed or defined neuropathic pain component N=126
[19] = Visit 11, subjects with nociceptive pain N=49
[20] = Visit 12, defined neuropathic pain N=85
[21] = Visit 12, positive diagnosis of lumbar radiculopathy-neuropathic pain subset N=44
[22] = Visit 12, presumed neuropathic pain component N=41
[23] = Visit 12, presumed or defined neuropathic
[24] = Visit 12, presumed or defined neuropathic pain component N=126
[25] = Visit 12, subjects with nociceptive pain N=49

CC[C@@H](c1cccc(O)c1)[C@@H](C)CN(C)C [tapentadol, (−)-(1R,2R)-3-(3-dimethylamino-1-ethyl-2-methyl-propyl)-phenol]
Depression score Median (Visit 8, positive diagnosis of lumbar radiculopathy-neuropathic pain subset N=44): 6.0 | Depression score Mean (SD) [1]: 6.4 (4.24) | Depression score Median [1]: 6.0 | Depression score change from baseline Mean (SD) [2]: −1.9 (3.30) | Depression score change from baseline Median [2]: −1.0 | Depression score Mean (SD) [3]: 6.4 (4.24) | Depression score Median [3]: 6.0 | Depression score Mean (SD) [4]: 5.5 (3.90) | Depression score Median [4]: 4.5 | Depression score change from baseline Mean (SD) (Visit 8, total): −1.6 (3.09) | Depression score change from baseline Median (Visit 8, total): −1.0 | Depression score Mean (SD) (Visit 8, total subjects N=175): 6.2 (4.16) | Depression score Median (Visit 8, total subjects N=175): 6.0 | Depression score Mean (SD) [5]: 6.5 (5.06) | Depression score Median [5]: 6.0 | Depression score Mean (SD) [6]: 6.2 (4.63) | Depression score Median [6]: 7.5 | Depression score Mean (SD) [7]: 6.4 (4.32) | Depression score Median [7]: 6.0 | Depression score Mean (SD) [8]: 6.5 (4.81) | Depression score Median [8]: 6.0 | Depression score Mean (SD) [9]: 5.4 (3.49) | Depression score Median [9]: 5.0 | Depression score Mean (SD) (Visit 9, total subjects N=175): 6.1 (4.48) | Depression score Median (Visit 9, total subjects N=175): 6.0 | Depression score Mean (SD) [10]: 6.5 (5.04) | Depression score Median [10]: 6.0 | Depression score Mean (SD) [11]: 6.2 (4.50) | Depression score Median [11]: 7.0 | Depression score Mean (SD) [12]: 6.4 (5.34) | Depression score Median [12]: 5.0 | Depression score Mean (SD) [13]: 6.5 (5.09) | Depression score Median [13]: 6.0 | Depression score Mean (SD) [14]: 5.5 (3.34) | Depression score Median [14]: 5.5 | Depression score Mean (SD) (Visit 10, total subjects N=175): 6.2 (4.66) | Depression score Median (Visit 10, total subjects N=175): 6.0 | Depression score Mean (SD) [15]: 5.9 (4.70) | Depression score Median [15]: 5.5 | Depression score Mean (SD) [16]: 6.0 (4.69) | Depression score Median [16]: 6.5 | Depression score Mean (SD) [17]: 6.4 (5.11) | Depression score Median [17]: 5.0 | Depression score Mean (SD) [18]: 6.0 (4.80) | Depression score Median [18]: 5.0 | Depression score Mean (SD) [19]: 5.6 (4.04) | Depression score Median [19]: 5.0 | Depression score Mean (SD) (Visit 11, total subjects N=175): 5.9 (4.59) | Depression score Median (Visit 11, total subjects N=175): 5.0 | Depression score change from baseline Mean (SD) (Visit 12): −1.5 (3.30) | Depression score change from baseline Median (Visit 12): −2.0 | Depression score change from baseline Mean (SD) (Visit 12, defined neuropathic): −2.2 (3.31) | Depression score change from baseline Median (Visit 12, defined neuropathic): −2.0 | Depression score Mean (SD) [20]: 5.8 (4.76) | Depression score Median [20]: 5.0 | Depression score change from baseline Mean (SD) (Visit 12, lumbar radiculopathy): −2.1 (3.30) | Depression score change from baseline Median (Visit 12, lumbar radiculopathy): −1.0 | Depression score change from baseline Mean (SD) (Visit 12, nociceptive): −0.5 (2.86) | Depression score change from baseline Median (Visit 12, nociceptive): 0.0 | Depression score Mean (SD) [21]: 5.3 (4.09) | Depression score Median [21]: 5.0 | Depression score Mean (SD) [22]: 6.2 (4.66) | Depression score Median [22]: 5.0 | Depression score change from baseline Mean (SD) [23]: −2.0 (3.30) | Depression score change from baseline Median [23]: −2.0 | Depression score Mean (SD) [24]: 5.9 (4.70) | Depression score Median [24]: 5.0 | Depression score Mean (SD) [25]: 4.9 (3.13) | Depression score Median [25]: 4.0 | Depression score change from baseline Mean (SD) (Visit 12, total): −1.6 (3.24) | Depression score change from baseline Median (Visit 12, total): −2.0 | Depression score Mean (SD) (Visit 12, total subjects N=175): 5.7 (4.35) | Depression score Median (Visit 12, total subjects N=175): 5.0 | efficacy against depression (conclusion from the clinical data): significant efficacy | depression (measured with HADS) (patient sub-population with low back pain with a neuropathic component): significant improvement
